“Also recorded” adds a separate entry of the source.
Columns and labels:
[1] = tested on: Caco-2 monolayer
[2] = tested on: Caco-2 monolayer; design: method as in PMID 32786865; settings: 1 mM γ-EV across Caco-2 cells, previous study; cited from earlier work
[3] = tested on: Caco-2 cells; experiment: MTT cell viability assay; type: cell-based, human
Method: (§1) A clear-bottom 96-well black plate (VWR, #29444-008) was seeded with Caco-2 cells (40,000 cells/well) and grown for 15 days in EMEM media (20% FBS and 1% Pen-Strep) to achieve differentiation of the cells. The MTT assay kit (Abcam, #ab211091) was used to test the cell-viability assay following the manufacturer’s guidelines, as described in the earlier study. For the time-course study, a concentration of 1 mM γ-EV was used for determining the cell toxicity, by incubating it on the Caco-2 cells for 2, 4, and 6 h. For the dose study, the cell toxicity of γ-EV was tested for different doses, such as 2.5, 3, 4, 5, and 10 mM, after incubating the peptide on the cells for 2 h. After the treatment period, the cell media was discarded and replaced with a mixture of 50 μL of the MTT reagent and 50 μL of serum-free EMEM media. After the incubation period of 3 h at 37 °C, the MTT-supplemented media was replaced with 150 μL of MTT solvent. Following that, the plates were incubated on an orbital shaker (200 rpm, 37 °C) (MaxQ 4450, Thermo Fischer Scientific, Waltham, MA, USA) for 15 min, in dark, after which the absorbance of the plate was read at 590 nm (Synergy H1 microplate reader, BioTek, Winooski, VT, USA). The background control readings were subtracted from each of the wells and the cell-viability percentage (%) was calculated using the formula cell viability % = (sample/control) × 100, where the control was cells with no γ-EV treatment, and the sample was the γ-EV treated cells.

[4] = MTT cell viability assay; type: cell-based, human; settings: human, Caco-2 cells (differentiated, grown for 15 days), 10 mM, 2 h, read-out: survival rate (cell viability)
Method: as §1

[5] = in vitro; settings: human, Caco-2
[6] = tested on: Caco-2 monolayer cells; experiment: in vitro; type: in vitro ADME, human; settings: Caco-2
Method: (§2) The route of transport of γ-EV across Caco-2 monolayer cells was determined using 1 mM γ-EV transported for 2 h, following the same protocol as mentioned in Section 2.4. However, in this case, four transport inhibitors were used prior to γ-EV addition in the apical layer, to elucidate the mechanism of transport. Theaflavin 3′-gallate (TF3′G) (20 μM), a cell tight-junction enhancer, was added to the EMEM growth medium 24 h before the experiment. Wortmannin (a transcytosis inhibitor, 1 μM), cytochalasin D (a cell tight-junction disruptor, 0.5 μg/mL), and Gly-Sar (PepT1 transporter inhibitor, 25 mM) were added 30 min before γ-EV addition in the HBSS buffer (pH 6.5). After the treatment was over, the apical and basal layers were collected, and the concentration of γ-EV was analyzed and represented via Papp. For this study, some of the replicate inserts were used for harvesting the Caco-2 cells for analyzing the tight-junction proteins via Western immunoblotting, while some of the inserts were used for visualizing the tight-junction proteins through immunofluorescence.
(§3) LC-MS/MS was used to detect the γ-EV content after the transport study. The instrument used was the Shimadzu LC system (Nexera X2, Columbia, MD, USA), interfaced with a Sciex QTRAP 6500+ mass spectrometer (Redwood City, CA, USA), equipped with a TurboIonSpray (TIS) electrospray ion source (ESI). […] The mobile phases and gradient used were as previously described. Analyst software (version 1.6.3, Redwood City, CA, USA) was used for the sample acquisition control and data analysis. The manufacturer’s recommendations were used for tuning and calibration of the SCIEX QTRAP 6500+ mass spectrometer. The parameters for the ESI operation were as follows: 5500 V ion spray voltage; 500 °C source temperature; ion source gas 1, gas 2, and curtain gas, as 50, 50, and 25, respectively; and collision gas, high. The multiple reaction monitoring (MRM) transitions and the compound settings were previously optimized and described in [11]. An external standard curve, containing different concentrations of the peptide (γ-EV diluted in water), was prepared for the absolute quantification of the peptide. The standards were run alongside the samples (γ-EV in HBSS buffer) in triplicate. The linear range of the standard curve was from 0.016 to 10 μM, with a linear regression slope R^2 of 1 with a CV of <8% for all the dilution points.

[7] = tested on: PepT1; experiment: in vitro; type: in vitro ADME, human; settings: human, Caco-2, Papp after Gly-Sar pretreatment
Method: as §2, §3

[8] = in vitro; type: in vitro ADME, human; settings: human
Method: as §2, §3

[9] = tested on: Caco-2 cells; settings: cytochalasin D 0.5 μg/mL, across Caco-2 cells; cited from earlier work

**Q.** Which Papp range [1] does the source give for CC(C)[C@H](NC(=O)CC[C@H](N)C(=O)O)C(=O)O [γ-EV, γ-glutamyl valine] here?
**A.** Its Papp range is 1.5–2.5 × 10^−6.

**Q.** And the “change in rate of transport (Papp) vs 1 mM dose” value [1]?
**A.** The value was “did not have a significant change”.

**Q.** What about the “apparent permeability coefficient (Papp)” value [2] of the same molecule?
**A.** The value was 1.56 ± 0.7 ×10⁻⁶ cm/s.

**Q.** What about the cytotoxicity ([3]; 1 mM, exposure 4 and 6 h) of the same molecule?
**A.** Its cytotoxicity is “not toxic; also recorded: No cytotoxicity”.

**Q.** What about the cytotoxicity ([3]; 10 mM, 2 h) of the same molecule?
**A.** The cytotoxicity was “cytotoxic”.

**Q.** And the cytotoxicity ([3]; concentrations up to 5 mM, 2 h)?
**A.** Its cytotoxicity is “nontoxic; also recorded: not toxic; also recorded: not cytotoxic”.

**Q.** And the viability at 2 h, 10 mM [4]?
**A.** Its viability at 2 h, 10 mM is 21%.

**Q.** What about the Papp A→B at 2 h, 5 mM [5] of the same molecule?
**A.** Its Papp A→B at 2 h, 5 mM is 2.5 ×10⁻⁶ cm/s.

**Q.** What about the Papp A→B at 4 h, 1 mM [5] of the same molecule?
**A.** Its Papp A→B at 4 h, 1 mM is 0.678 ×10⁻⁶ cm/s.

**Q.** And the Papp A→B at 6 h, 1 mM [5]?
**A.** The Papp A→B at 6 h, 1 mM was 0.746 ×10⁻⁶ cm/s.

**Q.** And the Papp at 2 h, 1 mM [5]?
**A.** Its Papp at 2 h, 1 mM is 1.56 ×10⁻⁶ cm/s.

**Q.** And the Papp at 2 h, 5 mM [5]?
**A.** The Papp at 2 h, 5 mM was 2.49 ×10⁻⁶ cm/s.

**Q.** And the “decrease of Papp by Gly-Sar vs control” value [6]?
**A.** Its value is 48%.

**Q.** And the Papp at 2 h, 1 mM [7]?
**A.** Its Papp at 2 h, 1 mM is 0.798 ×10⁻⁶ cm/s.

**Q.** What about the Papp at 2 h, 1 mM ([8]; Caco-2, Papp after TF3′G pretreatment) of the same molecule?
**A.** The Papp at 2 h, 1 mM was 0.875 ×10⁻⁶ cm/s.

**Q.** What about the Papp at 2 h, 1 mM ([8]; Caco-2, Papp after cytochalasin D pretreatment) of the same molecule?
**A.** Its Papp at 2 h, 1 mM is 4.36 ×10⁻⁶ cm/s.

**Q.** Which “increase of peptide transport by cytochalasin D” value [9] does the source give for HLPLP here?
**A.** The value was 65%.
